Assay results published in US8101601B2, “Aminoacyl prodrug derivatives and medicaments for the treatment of thromboembolitic disorders” (Bayer Pharma Aktiengesellschaft, priority 2007, dated 2012).
Where a name gives a salt, the structure may show the parent alone.

What was measured:
[1] = Stability in buffer at various pH values (HPLC, 37° C., 24 h); type: physicochemical
Method: 0.3 mg of the test substance is weighed into a 2 ml HPLC vial and 0.5 ml of acetonitrile is added. The substance is dissolved by putting the sample vessel in an ultrasonic bath for about 10 seconds. Then 0.5 ml of the respective buffer solution is added, and the sample is again treated in the ultrasonic bath.
• pH 4.0:1 liter of Millipore water is adjusted to pH 4.0 with 1 N hydrochloric acid; • pH 7.4: 90 g of sodium chloride, 13.61 g of potassium dihydrogen phosphate and 83.35 g of 1 M sodium hydroxide solution are made up to 1 liter with Millipore water and then diluted 1:10.
5 μl portions of the test solution are analysed by HPLC for their content of unchanged test substance every hour over a period of 24 hours at 37° C. The percentage areas of the appropriate peaks are used for quantification.
Agilent 1100 with DAD (G1314A), binary pump (G1312A), autosampler (G1329A), column oven (G1316A), thermostat (G1330A); column: Kromasil 100 C18, 125 mm×4.6 mm, 5 μm; column temperature: 30° C.; eluent A: water+5 ml of perchloric acid/liter, eluent B: acetonitrile.
The ratios of the peak areas (F) at the respective time points in relation to the peak areas at the starting time are shown in Table 2 for representative exemplary embodiments: […]

[2] = In vitro stability in rat plasma (HPLC detection); type: in vitro ADME; details: 37° C., read-out: half-life of degradation to liberate compound (A)
Method: 1 mg of substance is dissolved in 1.25 ml of dimethyl sulphoxide. Then 1.25 ml of water are added. 500 μl of this sample solution are mixed with 500 μl of rat plasma at 37° C. and shaken. A first sample (10 μl) is immediately taken for HPLC analysis. In the period up to 2 h after the start of incubation, further aliquots are taken after 2, 5, 10, 30, 60 and 90 min, and the content of the respective test substance and of the active ingredient compound (A) liberated therefrom is determined.
Agilent 1100 with DAD (G1314A), binary pump (G1312A), autosampler (G1329A), column oven (G1316A), thermostat (G1330A); column: Kromasil 100 C18, 250 mm×4.6 mm, 5 μm; column temperature: 30° C.; eluent A: water+5 ml of perchloric acid/liter, eluent B: acetonitrile.

[3] = Determination of the solubility (suspension shaken 24 h at room temperature, HPLC); type: physicochemical; details: thermodynamic from solid
Method: […] This suspension is shaken at room temperature for 24 h. After ultracentrifugation at 224 000 g for 30 min, the supernatant is diluted with DMSO and analysed by HPLC. A two-point calibration plot of the test compound in DMSO is used for quantification.
Agilent 1100 with DAD (G1315A), quat. pump (G1311A), autosampler CTC HTS PAL, degasser (G1322A) and column thermostat (G1316A); column: Zorbax Extend-C18 3.5μ; temperature: 40° C.; eluent A: water+5 ml of perchloric acid/liter, eluent B: acetonitrile; flow rate: 0.7 ml/min; gradient: 0-0.5 min 98% A, 2% B; ramp 0.5-4.5 min 10% A, 90% B; 4.5-6 min 10% A, 90% B; ramp 6.5-6.7 min 98% A, 2% B; 6.7-7.5 min 98% A, 2% B.

[4] = In vitro stability in rat plasma (LC/MS-MS detection); type: in vitro ADME, Wistar rats; details: Wistar rat plasma, 37° C.
Method: A defined plasma volume (e.g. 2.0 ml) is warmed to 37° C. in a closed test tube in a waterbath. After the intended temperature is reached, a defined amount of the test substance is added as solution (volume of the solvent not more than 2% of the plasma volume). The plasma is shaken and a first sample (50-100 μl) is immediately taken. Then 4-6 further aliquots are taken in the period up for 2 h after the start of incubation.
Acetonitrile is added to the plasma samples to precipitate proteins. After centrifugation, the test substance and, where appropriate, known cleavage products of the test substance in the supernatant are determined quantitatively with a suitable LC/MS-MS method.
The concentrations c of the compound of Example 6 and of the active ingredient compound (A) liberated therefrom determined at various times in the plasma of Wistar rats are shown in Table 3:
The concentrations c of the compound of Example 13 and of the active ingredient compound (A) liberated therefrom determined at various times in the plasma of Wistar rats are shown in Table 4: […]

[5] = buffer pH 4, 37° C., hydrochloride
[6] = 5% dextrose adjusted to pH 4 with hydrochloric acid, pH 4, saline or isotonic

Compound: CNCCCCC(=O)N(C[C@H]1CN(c2ccc(N3CCOCC3=O)cc2)C(=O)O1)C(=O)c1ccc(Cl)s1 [Example 17, 5-Chloro-N-[5-(methylamino)pentanoyl]-N-({(5S)-2-oxo-3-[4-(3-oxomorpholin-4-yl)phenyl]-1,3-oxazolidin-5-yl}methyl)thiophene-2-carboxamide hydrochloride]
- % test substance after 4 h [F(t = 4 h) × 100/F(t = 0 h)] [1, 5]: 83%
- % Test substance after 24 h [F(t = 24 h) × 100/F(t = 0 h)] [1, 5]: 55%
- half-life at 0.2 mg/ml [2]: < 2 min

Compound: CCCCNCCCC(=O)N(C[C@H]1CN(c2ccc(N3CCOCC3=O)cc2)C(=O)O1)C(=O)c1ccc(Cl)s1 [Example 22, N-[4-(Butylamino)butanoyl]-5-chloro-N-({(5S)-2-oxo-3-[4-(3-oxomorpholin-4-yl)phenyl]-1,3-oxazolidin-5-yl}methyl)thiophene-2-carboxamide hydrochloride]
- solubility at 24 h [3, 6]: > 3000 µg/mL
- % test substance after 4 h [F(t = 4 h) × 100/F(t = 0 h)] ([1]; buffer pH 4, 37° C.): 100%
- % Test substance after 24 h [F(t = 24 h) × 100/F(t = 0 h)] ([1]; buffer pH 4, 37° C.): 98%
- half-life at 0.2 mg/ml [2]: < 2 min

Compound: NCCOCC(=O)N(C[C@H]1CN(c2ccc(N3CCOCC3=O)cc2)C(=O)O1)C(=O)c1ccc(Cl)s1 [Example 23, N-[(2-Aminoethoxy)acetyl]-5-chloro-N-({(5S)-2-oxo-3-[4-(3-oxomorpholin-4-yl)phenyl]-1,3-oxazolidin-5-yl}methyl)thiophene-2-carboxamide hydrochloride]
- half-life at 0.2 mg/ml [2]: < 2 min

Compound: CNCCCC(=O)N(C[C@H]1CN(c2ccc(N3CCOCC3=O)cc2)C(=O)O1)C(=O)c1ccc(Cl)s1 [Example 13, 5-Chloro-N-[4-(methylamino)butanoyl]-N-({(5S)-2-oxo-3-[4-(3-oxomorpholin-4-yl)phenyl]-1,3-oxazolidin-5-yl}methyl)thiophene-2-carboxamide hydrochloride]
- solubility at 24 h [3, 6]: 2700 µg/mL
- % test substance after 4 h [F(t = 4 h) × 100/F(t = 0 h)] [1, 5]: 99%
- % Test substance after 24 h [F(t = 24 h) × 100/F(t = 0 h)] [1, 5]: 91%
- half-life at 0.2 mg/ml [2]: < 2 min
- c of test substance ([4]; incubation time 0 h): 0.5 mg/L

Compound: NCCCCC(=O)N(C[C@H]1CN(c2ccc(N3CCOCC3=O)cc2)C(=O)O1)C(=O)c1ccc(Cl)s1 [Example 20, N-(5-Aminopentanoyl)-5-chloro-N-({(5S)-2-oxo-3-[4-(3-oxomorpholin-4-yl)phenyl]-1,3-oxazolidin-5-yl}methyl)thiophene-2-carboxamide hydrochloride]
- solubility at 24 h [3, 6]: > 3000 µg/mL
- % test substance after 4 h [F(t = 4 h) × 100/F(t = 0 h)] ([1]; buffer pH 4, 37° C.): 98%
- % Test substance after 24 h [F(t = 24 h) × 100/F(t = 0 h)] ([1]; buffer pH 4, 37° C.): 90%
- % test substance after 4 h [F(t = 4 h) × 100/F(t = 0 h)] ([1]; buffer pH 7.4, 37° C.): 0%
- % Test substance after 24 h [F(t = 24 h) × 100/F(t = 0 h)] ([1]; buffer pH 7.4, 37° C.): 0%
- half-life at 0.2 mg/ml [2]: < 2 min

Compound: CC(C)[C@@H](N)C(=O)OCC(=O)N(C[C@H]1CN(c2ccc(N3CCOCC3=O)cc2)C(=O)O1)C(=O)c1ccc(Cl)s1 [Example 6, 2-[[(5-Chloro-2-thienyl)carbonyl]({(5S)-2-oxo-3-[4-(3-oxomorpholin-4-yl)phenyl]-1,3-oxazolidin-5-yl}methyl)amino]-2-oxoethyl D-valinate hydrochloride]
- solubility at 24 h ([3]; dilute hydrochloric acid (pH 4), pH 4, aqueous buffer, room temperature, 24 h): 860 µg/mL
- % test substance after 4 h [F(t = 4 h) × 100/F(t = 0 h)] ([1]; buffer pH 4, 37° C.): 100%
- % Test substance after 24 h [F(t = 24 h) × 100/F(t = 0 h)] ([1]; buffer pH 4, 37° C.): 98%
- % test substance after 4 h [F(t = 4 h) × 100/F(t = 0 h)] ([1]; buffer pH 7.4, 37° C.): 90%
- % Test substance after 24 h [F(t = 24 h) × 100/F(t = 0 h)] ([1]; buffer pH 7.4, 37° C.): 59%
- c of test substance ([4]; incubation time 0 h): 0.403 mg/L
- c of test substance ([4]; incubation time 0.08 h): 0.0756 mg/L
- c of test substance ([4]; incubation time 0.17 h): 0.0079 mg/L
